Laboratory results: US10206937B2, “Boronic acid derivatives and therapeutic uses thereof” (Qpex Biopharma, Inc., priority 2014, dated 2019)

Legend:
VIM-1 = biological target: T1, VIM-1 (Pseudomonas aeruginosa, UniProt A0A0F7KYQ8); assay: biochemical; conditions: cleavage of nitrocefin (200 uM) by VIM-1 supernatant
T1 construct: made in house; host or cells: ECM6711 strain carrying pUCP24-VIM-1 plasmid; culture supernatant used unpurified

NDM-1 [1] = biological target: T2, NDM-1 (Klebsiella pneumoniae, UniProt C7C422); assay: biochemical; conditions: cleavage of imipenem (100 uM) by NDM-1; read-out: Ki, Imipenem
T2 sequence (C7C422 29-270, looked up, species assumed): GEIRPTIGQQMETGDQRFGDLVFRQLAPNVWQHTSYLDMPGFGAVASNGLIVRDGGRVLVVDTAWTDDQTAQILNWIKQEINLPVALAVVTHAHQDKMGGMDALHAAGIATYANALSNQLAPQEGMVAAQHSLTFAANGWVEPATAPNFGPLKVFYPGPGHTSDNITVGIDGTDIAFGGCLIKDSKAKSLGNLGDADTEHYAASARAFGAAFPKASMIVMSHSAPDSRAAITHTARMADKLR

[2] = biological target: T3, purified class A, C and D enzymes (UniProt P0AD64, L31Q/G234S/E235K, species not given); assay type: biochemical; conditions: read-out: Ki (SHV-12, NCF); purified SHV-12; nitrocefin reporter substrate
T3 construct: Ki (SHV-12, NCF); other: purified SHV-12; nitrocefin reporter substrate
T3 sequence (P0AD64 1-286 L31Q/G234S/E235K): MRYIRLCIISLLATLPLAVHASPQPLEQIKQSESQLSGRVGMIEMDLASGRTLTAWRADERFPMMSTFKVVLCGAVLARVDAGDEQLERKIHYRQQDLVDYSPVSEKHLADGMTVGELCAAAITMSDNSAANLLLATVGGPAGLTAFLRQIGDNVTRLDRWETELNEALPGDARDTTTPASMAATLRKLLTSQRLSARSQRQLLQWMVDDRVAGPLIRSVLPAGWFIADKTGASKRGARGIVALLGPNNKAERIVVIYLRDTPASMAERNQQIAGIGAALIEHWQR

[3] = biological target: purified class A, C and D enzymes (Escherichia coli, UniProt Q9L5C7); assay type: biochemical; conditions: purified CTX-M-14; nitrocefin reporter substrate
Chain of purified class A, C and D enzymes (Escherichia coli, UniProt Q9L5C7) (Q9L5C7 entry or part of it): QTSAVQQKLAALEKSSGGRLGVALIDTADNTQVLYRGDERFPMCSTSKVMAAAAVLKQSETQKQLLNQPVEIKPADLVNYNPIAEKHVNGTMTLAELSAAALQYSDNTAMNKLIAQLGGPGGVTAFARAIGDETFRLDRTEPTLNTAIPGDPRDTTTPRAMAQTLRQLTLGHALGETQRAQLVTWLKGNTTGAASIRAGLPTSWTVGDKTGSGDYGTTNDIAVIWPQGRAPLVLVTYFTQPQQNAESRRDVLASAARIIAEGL

[4] = biological target: T4, purified class A, C and D enzymes (UniProt Q9F663); assay type: biochemical; conditions: read-out: Ki (KPC-2, NCF); purified KPC-2; nitrocefin reporter substrate
T4 construct: rows headed: Ki (KPC-2, NCF); other: purified KPC-2; nitrocefin reporter substrate

[5] = biological target: T5, purified class A, C and D enzymes (UniProt Q6XEC0); assay type: biochemical; conditions: read-out: Ki (OXA-48, NCF); purified OXA-48; nitrocefin reporter substrate
T5 construct: rows headed: Ki (OXA-48, NCF); other: purified OXA-48; nitrocefin reporter substrate

[6] = biological target: purified class A, C and D enzymes (Enterobacter cloacae, UniProt P05364); assay type: biochemical; conditions: purified P99/AmpC of ECL; nitrocefin reporter substrate
Chain of purified class A, C and D enzymes (Enterobacter cloacae, UniProt P05364) (P05364 21-381): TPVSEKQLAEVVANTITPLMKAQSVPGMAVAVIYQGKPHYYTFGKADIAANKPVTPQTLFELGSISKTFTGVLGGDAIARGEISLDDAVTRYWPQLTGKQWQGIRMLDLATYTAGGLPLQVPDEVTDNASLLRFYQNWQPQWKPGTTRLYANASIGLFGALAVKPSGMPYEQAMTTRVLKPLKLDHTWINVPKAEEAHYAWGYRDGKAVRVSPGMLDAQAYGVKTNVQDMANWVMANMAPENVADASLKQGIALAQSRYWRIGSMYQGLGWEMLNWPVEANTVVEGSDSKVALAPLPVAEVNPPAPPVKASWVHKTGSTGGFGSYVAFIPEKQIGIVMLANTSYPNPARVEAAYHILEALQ

NDM-1 [7] = biological target: T2, NDM-1; assay: Inhibition of purified class B carbapenemase NDM-1 (Ki, imipenem substrate); assay type: biochemical; conditions: NDM-1, substrate imipenem; read-out: Ki NDM-1, Imipenem

Structure (SMILES) | IC50 (VIM-1) [nM] | Ki (NDM-1 [1]) [nM] | Ki [2] [nM] | Ki (CTX-M-14, NCF) [3] | Ki [4] [nM] | Ki [5] [nM] | Ki (P99/AmpC of ECL, NCF) [6] | Ki (NDM-1 [7]) [nM]
COc1ccc2c(c1C(=O)O)OB(O)[C@@H](Sc1nnc(SCCN3CCNCC3)s1)C2 [Compound 68, (3R)-2-hydroxy-7-methoxy-3-[[5-(2-piperazin-1-ylethylsulfanyl)-1,3,4-thiadiazol-2-yl]sulfanyl]-3,4-dihydro-1,2-benzoxaborinine-8-carboxylic acid] | < 1000 | > 100 | < 100 | X (Less than 0.1 μM) | 100 to 1000 | < 100 | Y (0.1 μM to 1 μM) | > 100
COc1ccc2c(c1C(=O)O)OB(O)[C@@H](Sc1nnc(SCCN3CCOCC3)s1)C2 [Compound 110, (3R)-2-hydroxy-7-methoxy-3-[[5-(2-morpholinoethylsulfanyl)-1,3,4-thiadiazol-2-yl]sulfanyl]-3,4-dihydro-1,2-benzoxaborinine-8-carboxylic acid] | < 1000 | > 100 | < 100 | X (Less than 0.1 μM) | < 100 | < 100 | Y (0.1 μM to 1 μM) | > 100
COc1ccc2c(c1C(=O)O)OB(O)[C@@H](SC1CN(C3=NCCS3)C1)C2 [Compound 65, (3R)-3-[1-(4,5-dihydrothiazol-2-yl)azetidin-3-yl]sulfanyl-2-hydroxy-7-methoxy-3,4-dihydro-1,2-benzoxaborinine-8-carboxylic acid] | ≥ 1000 | > 100 | < 100 | X (Less than 0.1 μM) | < 100 | < 100 | Z (Greater than 1 μM) | > 100
CC(C)COc1ccc2c(c1C(=O)O)OB(O)[C@@H](Sc1nncs1)C2 [Compound 88, (3R)-2-hydroxy-7-isobutoxy-3-(1,3,4-thiadiazol-2-ylsulfanyl)-3,4-dihydro-1,2-benzoxaborinine-8-carboxylic acid] | < 1000 | 10 to 100 | < 100 | X (Less than 0.1 μM) | 100 to 1000 | < 100 | Y (0.1 μM to 1 μM) | 10 to 100
COc1ccc2c(c1C(=O)O)OB(O)[C@@H](Sc1nncn1CCCCN)C2 [Compound 73, (3R)-3-[[4-(4-aminobutyl)-1,2,4-triazol-3-yl]sulfanyl]-2-hydroxy-7-methoxy-3,4-dihydro-1,2-benzoxaborinine-8-carboxylic acid] | < 1000 | 10 to 100 | < 100 | X (Less than 0.1 μM) | 100 to 1000 | < 100 | Z (Greater than 1 μM) | 10 to 100
COc1ccc2c(c1C(=O)O)OB(O)[C@@H](Sc1cnns1)C2 [Compound 60, (3R)-2-hydroxy-7-methoxy-3-(thiadiazol-5-ylsulfanyl)-3,4-dihydro-1,2-benzoxaborinine-8-carboxylic acid] | < 1000 | > 100 | < 100 | X (Less than 0.1 μM) | < 100 | < 100 | Z (Greater than 1 μM) | > 100
Nc1nnc(S[C@H]2Cc3ccc(OCC(F)F)c(C(=O)O)c3OB2O)s1 [Compound 90, (3R)-3-[(5-amino-1,3,4-thiadiazol-2-yl)sulfanyl]-7-(2,2-difluoroethoxy)-2-hydroxy-3,4-dihydro-1,2-benzoxaborinine-8-carboxylic acid] | < 1000 | 10 to 100 | < 100 | X (Less than 0.1 μM) | < 100 | < 100 | Z (Greater than 1 μM) | 10 to 100
COc1ccc2c(c1C(=O)O)OB(O)[C@@H](Sc1nnc(SC3CNC3)s1)C2 [Compound 108, (3R)-3-[[5-(azetidin-3-ylsulfanyl)-1,3,4-thiadiazol-2-yl]sulfanyl]-2-hydroxy-7-methoxy-3,4-dihydro-1,2-benzoxaborinine-8-carboxylic acid] | < 1000 | 10 to 100 | < 100 | X (Less than 0.1 μM) | 100 to 1000 | < 100 | Y (0.1 μM to 1 μM) | 10 to 100
NC(=O)c1cnc(S[C@H]2Cc3ccc(F)c(C(=O)O)c3OB2O)s1 [Compound 53, (3R)-3-(5-carbamoylthiazol-2-yl)sulfanyl-7-fluoro-2-hydroxy-3,4-dihydro-1,2-benzoxaborinine-8-carboxylic acid] | < 1000 | > 100 | < 100 | X (Less than 0.1 μM) | < 100 | < 100 | Y (0.1 μM to 1 μM) | > 100
Cn1ncc(C(N)=O)c1S[C@H]1Cc2ccc(F)c(C(=O)O)c2OB1O [Compound 56, (3R)-3-(4-carbamoyl-2-methyl-pyrazol-3-yl)sulfanyl-7-fluoro-2-hydroxy-3,4-dihydro-1,2-benzoxaborinine-8-carboxylic acid] | ≥ 1000 | > 100 | 100 to 1000 | Y (0.1 μM to 1 μM) | 100 to 1000 | < 100 | Z (Greater than 1 μM) | > 100
COc1ccc2c(c1C(=O)O)OB(O)[C@@H](Sc1ncn(CCCC(=O)O)n1)C2 [Compound 40, (R)-3-(1-(3-carboxypropyl)-1H-1,2,4-triazol-3-ylthio)-2-hydroxy-7-methoxy-3,4-dihydro-2H-benzo[e][1,2]oxaborinine-8-carboxylic acid] | ≥ 1000 | > 100 | < 100 | X (Less than 0.1 μM) | < 100 | < 100 | X (Less than 0.1 μM) | > 100
COc1ccc2c(c1C(=O)O)OB(O)[C@@H](Sc1nnc(NC(C)=O)s1)C2 [Compound 63, (3R)-3-[(5-acetamido-1,3,4-thiadiazol-2-yl)sulfanyl]-2-hydroxy-7-methoxy-3,4-dihydro-1,2-benzoxaborinine-8-carboxylic acid] | < 1000 | > 100 | < 100 | X (Less than 0.1 μM) | 100 to 1000 | < 100 | X (Less than 0.1 μM) | > 100
O=C(O)c1c(F)ccc2c1OB(O)[C@@H](Sc1nccs1)C2 [Compound 45, (R)-7-fluoro-2-hydroxy-3-(thiazol-2-ylthio)-3,4-dihydro-2H-benzo[e][1,2]oxaborinine-8-carboxylic acid] | ≥ 1000 | 10 to 100 | < 100 | X (Less than 0.1 μM) | 100 to 1000 | < 100 | Z (Greater than 1 μM) | 10 to 100
COc1ccc2c(c1C(=O)O)OB(O)[C@@H](Sc1nccs1)C2 [Compound 47, (R)-2-hydroxy-7-methoxy-3-(thiazol-2-ylthio)-3,4-dihydro-2H-benzo[e][1,2]oxaborinine-8-carboxylic acid] | < 1000 | > 100 | < 100 | X (Less than 0.1 μM) | 100 to 1000 | < 100 | Y (0.1 μM to 1 μM) | 10 to 100
